Experimental data taken from ChEMBL document CHEMBL1137153, “Synthesis of 7 alpha- and 7 beta-spermidinylcholesterol, squalamine analogues” (2004).
Values after ≈ are worked out from the molar mass of the structure shown.

Experiments:
Assay type in all cases: functional
Candida albicans [1] = experiment: Minimal inhibitory concentration against Candida albicans (strain CIP 1180-79) after 48 hr of incubation was evaluated; Range = 4 - 8 ug/mL; details: CIP 1180-79, 48 h
Escherichia coli = experiment: Minimal inhibitory concentration against Escherichia coli (strain 54127) after 48 hr of incubation was evaluated
Staphylococcus aureus = experiment: Minimal inhibitory concentration against Staphylococcus aureus (strain CIP 54127) after 48 hr of incubation was evaluated; details: CIP 54127, 48 h
Enterococcus hirae = experiment: Minimal inhibitory concentration against Enterococcus hirae (strain CIP 5855) after 48 hr of incubation was evaluated; details: CIP 5855, 48 h
Candida albicans [2] = experiment: Minimal inhibitory concentration against Candida albicans (strain CIP 1180-79) after 48 hr of incubation was evaluated; details: CIP 1180-79, 48 h
Saccharomyces cerevisiae = experiment: Minimal inhibitory concentration against Saccharomyces cerevisiae (strain ATC 28383) after 48 hr of incubation was evaluated

| Compound | MIC (Candida albicans [1]) | MIC (Escherichia coli) | MIC (Staphylococcus aureus) | MIC (Enterococcus hirae) | MIC (Candida albicans [2]) | MIC (Saccharomyces cerevisiae) |
| --- | --- | --- | --- | --- | --- | --- |
| CC(C)[C@@H](CC[C@@H](C)[C@H]1CC[C@H]2[C@@H]3[C@H](O)C[C@H]4C[C@@H](NCCCNCCCCN)CC[C@]4(C)[C@H]3CC[C@]12C)OS(=O)(=O)O [SQUALAMINE] | 8 µg/mL (≈ 12.7 µM) | > 100 µg/mL | 1.56 µg/mL (≈ 2.48 µM) |  |  |  |
| CC(C)CCC[C@@H](C)[C@H]1CCC2C3C(CC[C@@]21C)[C@@]1(C)CC[C@H](O)CC1=C[C@@H]3NCCCNCCCCN (stereo partly drawn) |  | 3.12 µg/mL (≈ 5.89 µM) | 6.25 µg/mL (≈ 11.8 µM) | 6.25 µg/mL (≈ 11.8 µM) | 3.12 µg/mL (≈ 5.89 µM) | 3.12 µg/mL (≈ 5.89 µM) |
| CC(C)CCC[C@@H](C)[C@H]1CCC2C3C(CC[C@@]21C)[C@@]1(C)CC[C@H](O)CC1=C[C@H]3NCCCNCCCCN (stereo partly drawn) |  | 6.25 µg/mL (≈ 11.8 µM) | 3.12 µg/mL (≈ 5.89 µM) | 3.12 µg/mL (≈ 5.89 µM) | 6.25 µg/mL (≈ 11.8 µM) | 3.12 µg/mL (≈ 5.89 µM) |
